Data: PubChem BioAssay (NCI)
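Exposure lasted 48 hours, with cells grown in 96-well plates and compounds tested at five concentrations. GI50 = concentration required for 50% inhibition of growth. TGI is the concentration that stops growth completely.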

Experiments:
Experiment in all cases: NCI-60 cell line screen, 48 h
SK-MEL-2 melanoma = system: SK-MEL-2 melanoma
NCI/ADR-RES ovarian = system: NCI/ADR-RES ovarian
UACC-257 melanoma = system: UACC-257 melanoma
SW-620 colon = system: SW-620 colon
SNB-19 CNS = system: SNB-19 CNS
HS 578T breast = system: HS 578T breast
HCT-116 colon = system: HCT-116 colon
HOP-62 NSCLC = system: HOP-62 NSCLC
LOX IMVI melanoma = system: LOX IMVI melanoma
SF-295 CNS = system: SF-295 CNS
RXF 393 renal = system: RXF 393 renal
TK-10 renal = system: TK-10 renal
NCI-H522 lung = system: NCI-H522 lung
MDA-MB-231 breast = system: MDA-MB-231 breast
OVCAR-3 ovarian = system: OVCAR-3 ovarian
SF-268 CNS = system: SF-268 CNS
SR leukemia = system: SR leukemia
UACC-62 melanoma = system: UACC-62 melanoma
SN12C renal = system: SN12C renal
HOP-92 NSCLC = system: HOP-92 NSCLC
PC-3 prostate = system: PC-3 prostate
SNB-75 CNS = system: SNB-75 CNS
MALME-3M melanoma = system: MALME-3M melanoma
OVCAR-5 ovarian = system: OVCAR-5 ovarian
M14 melanoma = system: M14 melanoma
K-562 leukemia = system: K-562 leukemia
KM12 colon = system: KM12 colon
CAKI-1 renal = system: CAKI-1 renal
EKVX NSCLC = system: EKVX NSCLC
A549 NSCLC = system: A549 NSCLC
MDA-MB-435 = system: MDA-MB-435
UO-31 renal = system: UO-31 renal
OVCAR-8 ovarian = system: OVCAR-8 ovarian
SK-OV-3 ovarian = system: SK-OV-3 ovarian
MCF7 breast = system: MCF7 breast
NCI-H23 lung = system: NCI-H23 lung
NCI-H460 lung = system: NCI-H460 lung
IGROV1 ovarian = system: IGROV1 ovarian
ACHN renal = system: ACHN renal
HCC-2998 colon = system: HCC-2998 colon
HL-60(TB) leukemia = system: HL-60(TB) leukemia
SK-MEL-28 melanoma = system: SK-MEL-28 melanoma
COLO 205 colon = system: COLO 205 colon
OVCAR-4 ovarian = system: OVCAR-4 ovarian
CCRF-CEM leukemia = system: CCRF-CEM leukemia
A498 renal = system: A498 renal
SK-MEL-5 melanoma = system: SK-MEL-5 melanoma
U251 CNS = system: U251 CNS
786-0 renal = system: 786-0 renal
DU-145 prostate = system: DU-145 prostate
RPMI-8226 leukemia = system: RPMI-8226 leukemia
BT-549 breast = system: BT-549 breast
T-47D breast = system: T-47D breast
NCI-H226 lung = system: NCI-H226 lung
HT29 colon = system: HT29 colon
HCT-15 colon = system: HCT-15 colon
MDA-N = system: MDA-N
SF-539 CNS = system: SF-539 CNS
MOLT-4 leukemia = system: MOLT-4 leukemia

CC(CC(=O)O)(CC(=O)O)c1ccccc1
TGI (SK-MEL-2 melanoma): > 100 µM | TGI (NCI/ADR-RES ovarian): > 100 µM | TGI (UACC-257 melanoma): > 100 µM | TGI (SW-620 colon): > 100 µM | TGI (SNB-19 CNS): > 100 µM | TGI (HS 578T breast): > 100 µM | TGI (HCT-116 colon): > 100 µM | TGI (HOP-62 NSCLC): > 100 µM | TGI (LOX IMVI melanoma): > 100 µM | TGI (SF-295 CNS): > 100 µM | TGI (RXF 393 renal): > 100 µM | TGI (TK-10 renal): > 100 µM | TGI (NCI-H522 lung): > 100 µM | TGI (MDA-MB-231 breast): > 100 µM | TGI (OVCAR-3 ovarian): > 100 µM | TGI (SF-268 CNS): > 100 µM | TGI (SR leukemia): > 100 µM | TGI (UACC-62 melanoma): > 100 µM | TGI (SN12C renal): > 100 µM | TGI (HOP-92 NSCLC): > 100 µM | TGI (PC-3 prostate): > 100 µM | TGI (SNB-75 CNS): > 100 µM | TGI (MALME-3M melanoma): > 100 µM | TGI (OVCAR-5 ovarian): > 100 µM | TGI (M14 melanoma): > 100 µM | TGI (K-562 leukemia): > 100 µM | TGI (KM12 colon): > 100 µM | TGI (CAKI-1 renal): > 100 µM | TGI (EKVX NSCLC): > 100 µM | TGI (A549 NSCLC): > 100 µM | TGI (MDA-MB-435): > 100 µM | TGI (UO-31 renal): > 100 µM | TGI (OVCAR-8 ovarian): > 100 µM | TGI (SK-OV-3 ovarian): > 100 µM | TGI (MCF7 breast): > 100 µM | TGI (NCI-H23 lung): > 100 µM | TGI (NCI-H460 lung): > 100 µM | TGI (IGROV1 ovarian): > 100 µM | TGI (ACHN renal): > 100 µM | TGI (HCC-2998 colon): > 100 µM | TGI (HL-60(TB) leukemia): > 100 µM | TGI (SK-MEL-28 melanoma): > 100 µM | TGI (COLO 205 colon): > 100 µM | TGI (OVCAR-4 ovarian): > 100 µM | TGI (CCRF-CEM leukemia): > 100 µM | TGI (A498 renal): > 100 µM | TGI (SK-MEL-5 melanoma): > 100 µM | TGI (U251 CNS): > 100 µM | TGI (786-0 renal): > 100 µM | TGI (DU-145 prostate): > 100 µM | TGI (RPMI-8226 leukemia): > 100 µM | TGI (BT-549 breast): > 100 µM | TGI (T-47D breast): > 100 µM | TGI (NCI-H226 lung): > 100 µM | TGI (HT29 colon): > 100 µM | TGI (HCT-15 colon): > 100 µM | TGI (MDA-N): > 100 µM

CC(=N\O)/C(C)=N/O.CC(=N\O)/C(C)=N/O.CC(=N\O)/C(C)=N/O.CC(=N\O)/C(C)=N/O.[CH3-].[CH3-].[Co].[Co]
GI50 (SK-MEL-2 melanoma): 11.8 µM | TGI (SK-MEL-2 melanoma): 27.5 µM | GI50 (NCI/ADR-RES ovarian): > 100 µM | TGI (NCI/ADR-RES ovarian): > 100 µM | GI50 (UACC-257 melanoma): 14.8 µM | TGI (UACC-257 melanoma): 34.9 µM | GI50 (SW-620 colon): 29.4 µM | TGI (SW-620 colon): > 100 µM | GI50 (SNB-19 CNS): 17.6 µM | TGI (SNB-19 CNS): > 100 µM | GI50 (HS 578T breast): 22 µM | TGI (HS 578T breast): 92.5 µM | GI50 (HCT-116 colon): 7.75 µM | TGI (HCT-116 colon): > 100 µM | GI50 (HOP-62 NSCLC): 14.7 µM | TGI (HOP-62 NSCLC): 59.2 µM | GI50 (LOX IMVI melanoma): 14.4 µM | TGI (LOX IMVI melanoma): 31.2 µM | GI50 (SF-295 CNS): 22.8 µM | TGI (SF-295 CNS): 76.5 µM | GI50 (RXF 393 renal): 16.7 µM | TGI (RXF 393 renal): 39.9 µM | GI50 (SF-539 CNS): 11.3 µM | TGI (SF-539 CNS): 32.1 µM | GI50 (TK-10 renal): 28.5 µM | TGI (TK-10 renal): 88.8 µM | GI50 (NCI-H522 lung): 12.2 µM | TGI (NCI-H522 lung): 27.8 µM | GI50 (MDA-MB-231 breast): 25.3 µM | TGI (MDA-MB-231 breast): 76.7 µM | GI50 (OVCAR-3 ovarian): 15.9 µM | TGI (OVCAR-3 ovarian): 78.8 µM | GI50 (SF-268 CNS): 21.6 µM | TGI (SF-268 CNS): 72.3 µM | GI50 (SR leukemia): 16.2 µM | TGI (SR leukemia): 50.1 µM | GI50 (UACC-62 melanoma): 15.1 µM | TGI (UACC-62 melanoma): 30.5 µM | GI50 (SN12C renal): 21.9 µM | TGI (SN12C renal): > 100 µM | GI50 (HOP-92 NSCLC): 26.2 µM | TGI (HOP-92 NSCLC): 71.3 µM | GI50 (PC-3 prostate): 21.2 µM | TGI (PC-3 prostate): 63.8 µM | GI50 (SNB-75 CNS): 15.5 µM | TGI (SNB-75 CNS): 38.7 µM | GI50 (MALME-3M melanoma): 16.1 µM | TGI (MALME-3M melanoma): 30.7 µM | GI50 (OVCAR-5 ovarian): 28.8 µM | TGI (OVCAR-5 ovarian): > 100 µM | GI50 (MOLT-4 leukemia): 23.8 µM | TGI (MOLT-4 leukemia): 72.4 µM | GI50 (M14 melanoma): 13 µM | TGI (M14 melanoma): 29.8 µM | GI50 (K-562 leukemia): 20.4 µM | TGI (K-562 leukemia): > 100 µM | GI50 (KM12 colon): 27 µM | TGI (KM12 colon): > 100 µM | GI50 (CAKI-1 renal): 35.5 µM | TGI (CAKI-1 renal): > 100 µM | GI50 (EKVX NSCLC): 18.7 µM | TGI (EKVX NSCLC): 64.9 µM | GI50 (A549 NSCLC): 39.5 µM | TGI (A549 NSCLC): > 100 µM | GI50 (MDA-MB-435): 15 µM | TGI (MDA-MB-435): 39.9 µM | GI50 (UO-31 renal): 19.3 µM | TGI (UO-31 renal): 48.5 µM | GI50 (OVCAR-8 ovarian): 27.2 µM | TGI (OVCAR-8 ovarian): > 100 µM | GI50 (SK-OV-3 ovarian): 34.5 µM | TGI (SK-OV-3 ovarian): > 100 µM | GI50 (MCF7 breast): 16.9 µM | TGI (MCF7 breast): > 100 µM | GI50 (NCI-H460 lung): 14.6 µM | TGI (NCI-H460 lung): 40.7 µM | GI50 (IGROV1 ovarian): 28 µM | TGI (IGROV1 ovarian): > 100 µM | GI50 (ACHN renal): 35.4 µM | TGI (ACHN renal): > 100 µM | GI50 (HCC-2998 colon): 13.1 µM | TGI (HCC-2998 colon): 26.9 µM | GI50 (HL-60(TB) leukemia): 17.6 µM | TGI (HL-60(TB) leukemia): 50.5 µM | GI50 (SK-MEL-28 melanoma): 30.2 µM | TGI (SK-MEL-28 melanoma): 90.9 µM | GI50 (COLO 205 colon): 15 µM | TGI (COLO 205 colon): 29.8 µM | GI50 (OVCAR-4 ovarian): 21.1 µM | TGI (OVCAR-4 ovarian): 83.5 µM | GI50 (A498 renal): 32.1 µM | TGI (A498 renal): 77.1 µM | GI50 (SK-MEL-5 melanoma): 15.3 µM | TGI (SK-MEL-5 melanoma): 28.6 µM | GI50 (U251 CNS): 11.7 µM | TGI (U251 CNS): 24.1 µM | GI50 (786-0 renal): 18.4 µM | TGI (786-0 renal): > 100 µM | GI50 (DU-145 prostate): 30.9 µM | TGI (DU-145 prostate): > 100 µM | GI50 (RPMI-8226 leukemia): 12.8 µM | TGI (RPMI-8226 leukemia): 44.2 µM | GI50 (BT-549 breast): 15.1 µM | TGI (BT-549 breast): 33.8 µM | GI50 (T-47D breast): 26.5 µM | TGI (T-47D breast): > 100 µM | GI50 (NCI-H226 lung): 22.8 µM | TGI (NCI-H226 lung): 42.4 µM | GI50 (HT29 colon): 23 µM | TGI (HT29 colon): 82.5 µM | GI50 (HCT-15 colon): 24.8 µM | TGI (HCT-15 colon): > 100 µM | GI50 (MDA-N): 16.3 µM | TGI (MDA-N): > 100 µM
